Activity calls are given as the source filed them.
What was measured:
[1] = biological target: T1, Corticotropin-releasing factor receptor 2/Corticotropin-releasing factor-binding protein (Homo sapiens, UniProt P24387+Q13324); assay: activators of CRF receptor 2 with binding protein – uHTS hits, confirmation (AID 602473); format: functional; conditions: read-out: EC50_Mean
T1 sequence (Q13324 whole entry): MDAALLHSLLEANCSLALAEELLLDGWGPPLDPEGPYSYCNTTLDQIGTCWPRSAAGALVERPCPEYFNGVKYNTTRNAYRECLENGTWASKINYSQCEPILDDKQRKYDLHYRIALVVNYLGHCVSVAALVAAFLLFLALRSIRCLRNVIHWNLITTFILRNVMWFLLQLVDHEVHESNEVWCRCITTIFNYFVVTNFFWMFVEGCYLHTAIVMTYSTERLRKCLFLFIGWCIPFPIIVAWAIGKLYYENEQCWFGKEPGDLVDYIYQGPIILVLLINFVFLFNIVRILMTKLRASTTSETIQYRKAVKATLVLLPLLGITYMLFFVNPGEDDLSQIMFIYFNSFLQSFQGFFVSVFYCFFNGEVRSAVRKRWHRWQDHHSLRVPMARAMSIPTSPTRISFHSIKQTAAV
T1 sequence (P24387 whole entry): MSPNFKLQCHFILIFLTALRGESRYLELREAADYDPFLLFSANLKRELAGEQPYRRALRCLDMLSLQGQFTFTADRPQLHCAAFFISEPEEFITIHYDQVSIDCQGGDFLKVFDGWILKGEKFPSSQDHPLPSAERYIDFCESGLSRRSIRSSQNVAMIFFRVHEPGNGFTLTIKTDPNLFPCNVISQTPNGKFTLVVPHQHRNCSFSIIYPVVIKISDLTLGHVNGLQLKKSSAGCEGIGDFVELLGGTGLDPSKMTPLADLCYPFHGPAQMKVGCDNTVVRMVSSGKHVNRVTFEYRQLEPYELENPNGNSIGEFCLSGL

Mucolipin-3 = Mucolipin-3 (Homo sapiens, UniProt Q8TDD5); assay: Dose response cell-based high-throughput screening assay for agonists of the transient receptor potential channel ML3 (TRPML3). [Related pubchem assays: 1526, 1424, 1448 ]; format: functional
Ion channel NompC = Ion channel NompC (Danio rerio, UniProt Q7T1G6); assay: Fluorescence counterscreen assay for TRPML3 agonists: dose response cell-based high-throughput screening assay to identify agonists of the transient receptor potential channel N1 (TRPN1). [Related pubchem assays: 1526, 1424, 1448 ]; format: functional
[2] = biological target: T2, Zinc finger protein mex-5 (Caenorhabditis elegans, UniProt Q9XUB2); assay: MEX-5/TCR-2 RNA interaction inhibitors, dose response, biochemical, C. elegans, fluorescence polarization (AID 1960)
T2 sequence (Q9XUB2 whole entry): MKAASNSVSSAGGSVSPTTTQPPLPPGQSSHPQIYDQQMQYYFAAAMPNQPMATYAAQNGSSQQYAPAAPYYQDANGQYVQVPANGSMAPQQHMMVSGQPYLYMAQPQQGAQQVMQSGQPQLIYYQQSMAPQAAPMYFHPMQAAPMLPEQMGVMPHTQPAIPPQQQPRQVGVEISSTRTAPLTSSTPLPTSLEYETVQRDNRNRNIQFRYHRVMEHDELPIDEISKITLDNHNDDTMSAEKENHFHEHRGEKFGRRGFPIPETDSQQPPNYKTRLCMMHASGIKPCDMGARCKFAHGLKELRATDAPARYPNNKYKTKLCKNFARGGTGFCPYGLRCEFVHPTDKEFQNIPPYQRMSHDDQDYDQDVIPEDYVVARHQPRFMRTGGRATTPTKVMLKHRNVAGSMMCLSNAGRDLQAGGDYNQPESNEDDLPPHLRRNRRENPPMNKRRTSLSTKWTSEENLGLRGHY

[3] = biological target: T3, Neuropeptide Y receptor type 2 (Homo sapiens, UniProt P49146); format: functional, cell-based;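 further: HEK293 cells expressing the receptor and a CNG channel; stimulus was NPY near EC95 followed by isoproterenol to raise cAMP; antagonist potency measured as restoring cAMP signal that NPY suppresses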
T3 sequence (P49146 whole entry): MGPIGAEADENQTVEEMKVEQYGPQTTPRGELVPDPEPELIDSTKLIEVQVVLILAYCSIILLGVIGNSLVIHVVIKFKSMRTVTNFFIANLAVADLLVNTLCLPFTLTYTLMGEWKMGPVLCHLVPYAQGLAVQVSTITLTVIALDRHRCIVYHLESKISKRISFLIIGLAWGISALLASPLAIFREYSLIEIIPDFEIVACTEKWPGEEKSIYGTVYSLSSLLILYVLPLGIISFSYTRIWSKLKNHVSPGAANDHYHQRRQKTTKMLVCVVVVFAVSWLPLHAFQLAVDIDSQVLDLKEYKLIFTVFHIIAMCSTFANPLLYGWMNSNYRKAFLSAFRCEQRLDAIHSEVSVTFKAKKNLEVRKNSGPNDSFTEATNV

[4] = biological target: T4, Neuropeptide Y receptor type 1 (Homo sapiens, UniProt P25929); format: functional;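 further: HEK293 cells with a CNG channel challenged with NPY then isoproterenol; potency as antagonist that reverses NPY suppression of cAMP signal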
T4 sequence (P25929 whole entry): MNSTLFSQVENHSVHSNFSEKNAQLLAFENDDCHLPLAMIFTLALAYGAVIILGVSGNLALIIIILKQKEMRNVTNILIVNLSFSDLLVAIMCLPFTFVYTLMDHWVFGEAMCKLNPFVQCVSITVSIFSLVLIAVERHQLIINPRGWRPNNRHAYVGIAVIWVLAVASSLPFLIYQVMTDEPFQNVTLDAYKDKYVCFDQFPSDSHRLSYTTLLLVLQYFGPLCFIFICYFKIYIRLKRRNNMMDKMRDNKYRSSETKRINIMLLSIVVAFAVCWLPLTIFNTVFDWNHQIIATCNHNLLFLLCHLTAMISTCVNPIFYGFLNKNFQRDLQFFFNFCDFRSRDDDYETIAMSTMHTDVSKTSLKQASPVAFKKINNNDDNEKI

[5] = biological target: T5, RNA-binding protein pos-1 (Caenorhabditis elegans, UniProt G5EF15); assay: inhibitors of POS-1/mex-3 RNA binding, dose response, biochemical, fluorescence polarization (AID 1964);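 further: purified POS-1 fused to maltose binding protein made in E. coli; potency of compounds blocking POS-1 binding to fluorescent RNA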
T5 sequence (G5EF15 whole entry): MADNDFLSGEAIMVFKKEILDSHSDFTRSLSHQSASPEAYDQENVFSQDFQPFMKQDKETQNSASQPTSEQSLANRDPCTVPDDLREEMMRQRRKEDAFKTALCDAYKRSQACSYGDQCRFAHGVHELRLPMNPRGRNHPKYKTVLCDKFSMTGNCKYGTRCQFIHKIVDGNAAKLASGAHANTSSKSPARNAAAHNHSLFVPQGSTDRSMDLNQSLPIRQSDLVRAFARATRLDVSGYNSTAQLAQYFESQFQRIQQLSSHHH

HT-1080 = assay: cytotoxicity in HT1080 fibrosarcoma cells, cell-based, fluorescence readout (AID 620); format: functional; conditions: Homo sapiens
[6] = biological target: Luciferin 4-monooxygenase (Photinus pyralis, UniProt P08659); assay: Counter Screen for Luciferase-based Assay Positives. [Related pubchem assays: 620, 618, 411 ]
cells [7] = format: functional, cell-based
cells [8] = format: functional, cell-based; remark: listed apart in the source

Sequence of Ion channel NompC (Q7T1G6 whole entry): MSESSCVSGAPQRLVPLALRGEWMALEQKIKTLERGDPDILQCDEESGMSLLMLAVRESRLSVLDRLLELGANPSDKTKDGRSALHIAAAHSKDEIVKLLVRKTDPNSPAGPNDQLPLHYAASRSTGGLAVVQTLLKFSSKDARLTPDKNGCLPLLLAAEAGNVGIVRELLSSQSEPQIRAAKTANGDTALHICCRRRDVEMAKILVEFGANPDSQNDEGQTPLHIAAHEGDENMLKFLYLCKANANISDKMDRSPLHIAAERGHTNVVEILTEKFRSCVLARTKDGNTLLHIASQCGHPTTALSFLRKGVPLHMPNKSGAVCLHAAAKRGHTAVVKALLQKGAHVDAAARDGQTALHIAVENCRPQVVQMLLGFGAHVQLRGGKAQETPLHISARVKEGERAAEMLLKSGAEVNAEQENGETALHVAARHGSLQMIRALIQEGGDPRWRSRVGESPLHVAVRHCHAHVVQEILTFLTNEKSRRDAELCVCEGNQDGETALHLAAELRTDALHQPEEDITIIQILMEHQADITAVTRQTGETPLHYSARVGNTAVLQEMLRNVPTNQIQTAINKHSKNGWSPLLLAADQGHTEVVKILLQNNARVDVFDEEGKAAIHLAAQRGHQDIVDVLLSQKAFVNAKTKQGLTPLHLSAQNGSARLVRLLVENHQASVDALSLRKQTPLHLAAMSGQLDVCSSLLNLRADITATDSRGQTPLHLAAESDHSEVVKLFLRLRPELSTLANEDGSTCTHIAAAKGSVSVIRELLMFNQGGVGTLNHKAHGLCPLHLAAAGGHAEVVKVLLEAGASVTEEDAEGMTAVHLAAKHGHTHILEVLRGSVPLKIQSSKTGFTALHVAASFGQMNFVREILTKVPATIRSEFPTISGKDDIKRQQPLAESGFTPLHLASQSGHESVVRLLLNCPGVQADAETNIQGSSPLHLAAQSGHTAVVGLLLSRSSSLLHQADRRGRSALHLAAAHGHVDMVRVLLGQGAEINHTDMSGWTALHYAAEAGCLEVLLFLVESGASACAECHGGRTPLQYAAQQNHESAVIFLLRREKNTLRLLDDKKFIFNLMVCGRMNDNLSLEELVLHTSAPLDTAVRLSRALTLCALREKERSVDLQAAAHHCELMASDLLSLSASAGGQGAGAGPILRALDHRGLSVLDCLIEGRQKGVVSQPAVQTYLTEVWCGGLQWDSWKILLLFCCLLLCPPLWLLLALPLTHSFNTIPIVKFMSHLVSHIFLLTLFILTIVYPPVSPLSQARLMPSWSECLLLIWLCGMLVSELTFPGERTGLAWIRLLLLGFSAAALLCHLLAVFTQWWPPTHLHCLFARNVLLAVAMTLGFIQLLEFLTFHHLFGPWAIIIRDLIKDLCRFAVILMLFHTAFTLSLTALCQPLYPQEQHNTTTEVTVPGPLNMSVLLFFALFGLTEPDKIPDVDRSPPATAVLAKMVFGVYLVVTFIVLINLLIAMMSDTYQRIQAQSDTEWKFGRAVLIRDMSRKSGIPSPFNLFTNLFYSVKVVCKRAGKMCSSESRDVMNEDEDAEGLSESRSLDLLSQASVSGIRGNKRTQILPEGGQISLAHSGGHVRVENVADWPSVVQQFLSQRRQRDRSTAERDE
Sequence of Mucolipin-3 (Q8TDD5 whole entry): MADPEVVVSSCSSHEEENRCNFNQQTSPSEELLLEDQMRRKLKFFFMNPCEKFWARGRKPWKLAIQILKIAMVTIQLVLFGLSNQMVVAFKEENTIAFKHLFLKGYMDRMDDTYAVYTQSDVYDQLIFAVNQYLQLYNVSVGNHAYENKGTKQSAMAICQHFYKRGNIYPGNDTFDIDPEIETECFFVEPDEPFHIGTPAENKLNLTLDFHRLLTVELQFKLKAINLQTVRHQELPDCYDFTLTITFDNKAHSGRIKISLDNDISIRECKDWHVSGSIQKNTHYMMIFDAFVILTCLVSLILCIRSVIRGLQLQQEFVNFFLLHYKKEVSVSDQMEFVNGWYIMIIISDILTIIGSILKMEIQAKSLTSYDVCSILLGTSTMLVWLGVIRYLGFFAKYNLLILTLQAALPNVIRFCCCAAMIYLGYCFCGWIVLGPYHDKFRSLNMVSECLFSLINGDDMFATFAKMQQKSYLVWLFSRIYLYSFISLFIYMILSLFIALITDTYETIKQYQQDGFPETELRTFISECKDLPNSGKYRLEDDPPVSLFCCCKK
Sequence of Luciferin 4-monooxygenase (P08659 whole entry): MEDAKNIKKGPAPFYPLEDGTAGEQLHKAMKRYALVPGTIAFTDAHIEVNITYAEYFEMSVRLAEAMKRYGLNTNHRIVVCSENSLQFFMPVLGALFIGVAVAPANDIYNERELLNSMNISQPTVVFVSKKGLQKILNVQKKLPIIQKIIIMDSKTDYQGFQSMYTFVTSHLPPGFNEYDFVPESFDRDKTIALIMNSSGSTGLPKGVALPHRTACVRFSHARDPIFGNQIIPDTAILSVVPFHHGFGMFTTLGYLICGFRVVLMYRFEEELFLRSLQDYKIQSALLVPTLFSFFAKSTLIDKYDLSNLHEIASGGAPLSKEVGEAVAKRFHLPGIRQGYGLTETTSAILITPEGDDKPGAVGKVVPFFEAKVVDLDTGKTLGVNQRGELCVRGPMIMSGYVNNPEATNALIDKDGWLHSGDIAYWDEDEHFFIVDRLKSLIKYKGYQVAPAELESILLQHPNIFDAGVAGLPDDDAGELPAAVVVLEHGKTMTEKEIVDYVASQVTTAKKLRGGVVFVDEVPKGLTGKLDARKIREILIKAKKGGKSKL

Compound | EC50 (Mucolipin-3) | EC50 (Ion channel NompC) | IC50 [3] | IC50 [4] | further results
COc1ccc(C(=O)CSc2nnn(-c3cccc(NC(C)=O)c3)n2)cc1 | 17.3 µM (not active) | 9.35 µM (active) | – | – | EC50 [1]: 4.96 µM (active)
O=C1C2CC=C(Cl)CC2C(=O)N1CC1Cc2ccccc2CO1 (stereo not given) | – | – | 5.72 µM (active) | 7.82 µM (active) | EC50 [2]: 22 µM (active); EC50 [5]: 23 µM (active)
CC(C)[C@H](NS(=O)(=O)c1ccccc1)C(=O)OCC(=O)Nc1ccccc1Sc1ccccc1 | 3.96 µM (active) | > 29.9 µM (not active) | – | – | –
COc1ccc(S(=O)(=O)N2CCN(C(=O)CCC3CCCC3)CC2)cc1 | – | – | – | – | EC50 (HT-1080): > 50 µM (not active); EC50 [6]: 2.3 µM (active)
CCCCCCCCCS(=O)(=O)N/N=C/c1cccc([N+](=O)[O-])c1 | – | – | > 35 µM (not active) | > 35 µM (not active) | EC50 (cells [7]): 23.7 µM (active); EC50 (cells [8]): > 350 µM (not active)

From ChEMBL document CHEMBL1201862, “PubChem BioAssay data set” (2004)
